Experimental data: PMC4549706, “Rational Design of Highly Potent and Slow-Binding Cytochrome bc1 Inhibitor as Fungicide by Computational Substitution Optimization” (Scientific Reports, 2015)
In brackets after ≈: the same amount, converted by molar mass. Read-outs that look alike come from different tables or passages of the source.

Legend:
[1] = system: Pseudoperonospora cubensis (Berk. et Curt.); test: In vivo fungus growth inhibitory rate at 200 mg/L, downy mildew
Procedure: [a] Compounds are named as “series number-site number plus substitution group number” a: -F, b: -Cl, c:
-Br, d: -NO2, e: -CH3, f: -CF3, g: -OCH3, h: -OH, i: -NH2, j: -COOH.
[b] Substitution number and group.
[c] CH is “series 1” and N is “series 2”. […]
Table S2 Fungus growth inhibitory rate of target compounds (200 mg/L).
Comp. No. R X Sphaerotheca fuliginea Pseudoperonospora cubensis

[2] = system: Sphaerotheca fuliginea (S. fuliginea); test: Greenhouse fungicidal activity, potted cucumber, powdery mildew; format: in vivo; settings: Podosphaera fuliginea
Procedure: For a further validation, the controlling efficacy of compound 18 against downy mildew and powdery mildew disease was tested in greenhouse and field models.
The fungicidal activity of compound 18 against P. cubensis and S. fuliginea was evaluated according to a previously published method[30] and a potted-plant test method was adopted. […]
Greenhouse Fungicidal Activity
The fungicidal activity of compound 18 against P. cubensis and S. fuliginea was evaluated according to a previously published method 17 and a potted-plant test method was adopted. Commercial fungicide AZ was evaluated as a control under the same conditions.
Cucumber seeds were soaked in water for 2 h at 50℃ and then were kept moist for 24 h at 28℃ in an incubator. When the radicles grew to 0.5 cm, the seeds were grown in plastic pots containing a 1:1 (v/v) mixture of vermiculite and peat. At the stage of two leaves, all of the cucumber plants used for inoculations were divided into two groups to test for protective and curative effects. In the protective action, compound 18 and commercial fungicide AZ were sprayed on the leaves before the inoculation. However, the fungal inoculation and chemical spraying are reverse in the […] action.
In the protective action, compound 18 and commercial fungicide AZ were sprayed with a hand spray on the surface of the seed leaves at concentrations of 200, 100, 50, 25, 12.5, 6.25, 3.125, 1.5625 mg/L. After 2 h, inoculations of P. cubensis and S. fuliginea were carried out by spraying a conidial suspension (concentration […]), which was repeated 4 times.
After inoculation, the cucumber seedlings were cultured in a culture room at 25±2℃, 70%~80% relative humidity, and 16L:8D photoperiod for 8 d. In the curative action, the fungal inoculation and chemical spraying were reversed with the protective action. Foliar spray with fungicides to inoculated cucumber plants (before disease expression) till near-run-oﬀ was made on the 7th and 15th day after emergence. The fungicidal activity was evaluated when the nontreated cucumber plant fully developed symptoms. The area of inoculated and treated leaves covered by disease symptoms was assessed and compared to that of nontreated ones to determine the average disease index.
The disease range (i) was visually evaluated on the […]rst true leaf and ranked as a percentage infected area using a rating of 0, 1, 3, 5, 7, or 9, denoting proportions of disease over the whole leaf area of 0%, < 5%, 6–10%, 11–25%, 26–50%, and > 50%, respectively 18.
(§1) The disease index and control effect of compound 18 were calculated via the following […]
(§2) Disease index (%) = ∑(Ni × i)/(N × 9) × 100 […]

[3] = system: P. cubensis; test: Field trial, cucumber naturally infected, downy mildew; format: in vivo, Pseudoperonospora cubensis; settings: 7th day
Procedure: To further study the potential of compound 18 against powdery mildew and downy mildew, field experiments were conducted during the growing season of summer squash and cucumber. The summer squash plants at a fruiting stage naturally infected by S. fuliginea were used. […] Almost no lesions were observed on the leaves of summer squash. […] Lesions on the leaves of control plants, however, expanded quickly, and intense fungal hyphae could be observed. The curative effect is approximately 64.85% for the AZ-treated (93.75 g.ai/ha) summer squash. In addition, field trials for the treatment of downy mildew of cucumber were also performed. Cucumber plants naturally infected by P. cubensis were used for the study. Fungi on the leaves of control plants expanded quickly and lesions could be observed.
In the field trials, summer squash plants which is naturally infected by S. fuliginea and cucumber plants which is naturally infected by P. cubensis were used.
as §1, §2
Each treatment took up in four plots and was distributed randomly in each […]eld. The relative control effects were assessed after the 7th day of foliar application 18. […]

Row | SMILES | Fungus growth inhibitory rate, Pseudoperonospora cubensis [1] | Fungus growth inhibitory rate, Pseudoperonospora cubensis ([1]; listed as Comp. 18) | EC90 ([2]; read-out: curative EC90 against S. fuliginea) | EC90 ([2]; read-out: protective EC90 against S. fuliginea) | curative effect, downy mildew (P. cubensis) ([3]; 60 g.ai/ha) | EC90 ([2]; greenhouse, cucumber, sprayed after inoculation, read-out: curative EC90 against S. fuliginea) | EC90 ([2]; greenhouse, cucumber, sprayed before inoculation, read-out: protective EC90 against S. fuliginea) | curative effect, downy mildew (P. cubensis) ([3]; 75 g.ai/ha)
1 | COC=C(C(=O)OC)c1ccccc1CSc1nc2cc(OC)ccc2s1 [Compound 18] | completely inhibited | 100% | 32.9 µg/mL (≈ 81.9 µM) | 1.89 µg/mL (≈ 4.71 µM) | approximately 82.59% |  |  | 
2 | CO/C=C(/C(=O)OC)c1ccccc1Oc1cc(Oc2ccccc2C#N)ncn1 [AZ, Azoxystrobin, reference compound] | 94% |  |  |  |  | > 500 µg/mL | 254 µg/mL (≈ 630 µM) | 59.59%
